Here are results for 31 compounds from the Kinase Knowledgebase extract (Sharma et al. 2016).

Each structure is given as a SMILES string.

For the assay, the target named is PIK3CD (Human) (UniProt O00329). Put plainly: Assessment of PIK3CD Kinase Activity (Scintillation Proximity Assay). For orientation: Scintillation proximity formats need no separation of bound from free tracer.
PIK3CD (Human), sequence (O00329 whole entry, looked up): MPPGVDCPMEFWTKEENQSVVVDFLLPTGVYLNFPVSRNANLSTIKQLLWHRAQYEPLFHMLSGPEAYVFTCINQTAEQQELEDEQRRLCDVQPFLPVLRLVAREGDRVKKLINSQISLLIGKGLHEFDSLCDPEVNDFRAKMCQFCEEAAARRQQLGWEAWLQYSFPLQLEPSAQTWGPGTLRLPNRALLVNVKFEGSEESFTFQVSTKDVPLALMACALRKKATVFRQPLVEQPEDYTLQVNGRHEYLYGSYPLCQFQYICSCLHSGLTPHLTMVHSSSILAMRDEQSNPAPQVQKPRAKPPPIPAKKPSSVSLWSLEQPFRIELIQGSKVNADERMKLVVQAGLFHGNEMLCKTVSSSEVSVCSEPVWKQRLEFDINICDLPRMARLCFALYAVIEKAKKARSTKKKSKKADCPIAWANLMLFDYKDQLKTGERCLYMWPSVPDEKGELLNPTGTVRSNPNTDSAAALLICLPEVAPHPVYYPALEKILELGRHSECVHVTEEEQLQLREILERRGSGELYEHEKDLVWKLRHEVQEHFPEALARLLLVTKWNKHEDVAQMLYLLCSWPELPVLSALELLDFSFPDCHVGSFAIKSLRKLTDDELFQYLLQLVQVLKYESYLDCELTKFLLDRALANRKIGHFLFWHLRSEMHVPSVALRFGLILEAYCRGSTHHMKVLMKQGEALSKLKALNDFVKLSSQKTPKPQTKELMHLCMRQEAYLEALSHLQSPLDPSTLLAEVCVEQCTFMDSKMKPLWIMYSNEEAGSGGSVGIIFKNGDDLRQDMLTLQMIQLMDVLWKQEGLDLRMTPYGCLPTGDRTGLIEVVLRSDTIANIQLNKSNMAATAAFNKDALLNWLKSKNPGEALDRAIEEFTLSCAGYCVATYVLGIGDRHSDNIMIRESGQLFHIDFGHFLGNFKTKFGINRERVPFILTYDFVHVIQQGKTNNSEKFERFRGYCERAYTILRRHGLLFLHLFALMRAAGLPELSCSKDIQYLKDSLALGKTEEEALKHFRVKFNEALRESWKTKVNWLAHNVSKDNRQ
A word on the IC50: it is the midpoint of a concentration-inhibition curve. Read a high IC50 as weaker potency. For `CCOc1c(C(C)n2nc(C)c3c(N)ncnc32)cc(Cl)c(C#N)c1C1CN(CC(C)(C)O)C1` (stereo unspecified), the IC50 is ≤ 10 nM. Next, `COc1c(C(C)n2nc(C)c3c(N)ncnc32)cc(Cl)c(C)c1C1CN([C@@H](C)C(O)N(C)C)C1` (stereo partly specified): ≤ 10 nM; `CCOc1c(C(C)n2nc(CC#N)c3c(N)ncnc32)cc(Cl)c(C)c1-c1ccc(C(=O)N(C)C)nc1` (stereo unspecified): ≤ 10 nM; `COc1c(C(C)n2nc(C)c3c(N)ncnc32)cc(Cl)c(C#N)c1C1CN(C2CCC2)C1` (stereo unspecified): ≤ 10 nM.

In the case of `CCN1CC(c2c(C)c(Cl)cc(C(C)n3nc(C)c4c(N)ncnc43)c2OC)C1` (stereo unspecified), the IC50 is ≤ 10 nM. On to `COc1c(C(C)n2ccc(=O)c3c(N)ncnc32)cc(Cl)c(C)c1-c1cncnc1` (stereo unspecified), for which the IC50 was ≤ 10 nM.

In the case of `CCOc1c(C(C)n2nc(C)c3c(N)ncnc32)cc(Cl)c(C#N)c1C1CN(S(=O)(=O)CC)C1` (stereo unspecified), the IC50 is ≤ 10 nM. The value for `CCOc1c(C(C)n2nc(C)c3c(N)ncnc32)cc(Cl)c(C)c1-c1ccc(C(=O)N(C)C)nc1` (stereo unspecified) was ≤ 10 nM. The value for `CCOc1c(C(C)n2nc(C)c3c(N)ncnc32)cc(Cl)c(F)c1C1CNC(=O)C1` (stereo unspecified) was ≤ 10 nM; that for `COc1c(C(C)n2nc(C)c3c(N)ncnc32)cc(Cl)c(C)c1C1CN([C@H](C)C(=O)N(C)C)C1` (stereo partly specified) was ≤ 10 nM; that for `COc1c(C(C)n2nc(C)c3c(N)ncnc32)cc(Cl)c(C#N)c1-c1ccc(C(=O)N(C)C)nc1` (stereo unspecified) was ≤ 10 nM.

`COc1c(C(C)n2nc(C)c3c(N)ncnc32)cc(Cl)c(C)c1C1CN(C2(CC#N)CCC2)C1` (stereo unspecified): the IC50 is ≤ 10 nM.

Consider `COc1c(C(C)n2nc(C)c3c(N)ncnc32)cc(Cl)c(C#N)c1C1CN(C(=O)C(C)C)C1` (stereo unspecified), for which the IC50 is ≤ 10 nM.

`CCOc1c(C(C)n2nc(C)c3c(N)ncnc32)cc(Cl)c(C#N)c1-c1ccc(-c2nnn(C)n2)nc1` (stereo unspecified): the IC50 is ≤ 10 nM. With `CCOc1c(C(C)n2nc(-c3cnn(CCO)c3)c3c(N)ncnc32)cc(Cl)c(C)c1-c1ccc(C(=O)N(C)C)nc1` (stereo unspecified), the IC50 was ≤ 10 nM. The value for `CCOc1c(C(C)n2nc(C)c3c(N)ncnc32)cc(C#N)c(C)c1-c1cnn(C)c1` (stereo unspecified) was ≤ 10 nM.

As to `COc1c(C(C)n2nc(C)c3c(N)ncnc32)cc(Cl)c(C#N)c1C1CNC1` (stereo unspecified), the half-inhibitory concentration (IC50) was ≤ 10 nM. `CCOc1c(C(C)n2nc(C#C[C@H](C)O)c3c(N)ncnc32)cc(Cl)c(C)c1-c1ccc(C(=O)N(C)C)nc1` (stereo partly specified): the IC50 is ≤ 10 nM. For the compound `COc1c(C(C)n2ccc(=O)c3c(N)ncnc32)cc(Cl)c(C)c1C1CN(C(C)C)C1` (stereo unspecified), the 50% inhibitory concentration (IC50) was ≤ 10 nM. Regarding `COc1c(C(C)n2nc(C)c3c(N)ncnc32)cc(C#N)c(C)c1-c1cnn(C)c1` (stereo unspecified), the IC50 was 10 to 50 nM. On to `COc1c([C@H](C)n2nc(C)c3c(N)ncnc32)cc(Cl)c(C#N)c1C1CN(C[C@@H](C)O)C1`, for which the IC50 is ≤ 10 nM.

As to `CCNC(=O)c1c(C)c(Cl)cc(C(C)n2nc(C)c3c(N)ncnc32)c1-c1cc(F)cc(F)c1` (stereo unspecified), the IC50 is ≤ 10 nM.

As to `CCOc1c(C(C)n2nc(C)c3c(N)ncnc32)cc(Cl)c(C#N)c1N1CC(COC)C1` (stereo unspecified), the IC50 was ≤ 10 nM. As for `COc1c(C(C)n2nc(C)c3c(N)ncnc32)cc(Cl)c(C)c1C1CN(C(=O)c2cn[nH]c2)C1` (stereo unspecified), the half-inhibitory concentration (IC50) was ≤ 10 nM. Consider `CCOc1c(C(C)n2nc(CO)c3c(N)ncnc32)cc(Cl)c(C)c1-c1ccc(C(=O)N(C)C)nc1` (stereo unspecified), for which the IC50 is ≤ 10 nM. Take `COc1c(C(C)n2nc(C(F)F)c3c(N)ncnc32)cc(Cl)c(F)c1C1CN(CCO)C1` (stereo unspecified): the IC50 was ≤ 10 nM. As to `CCNC(=O)c1c(C)c(Cl)cc(C(C)n2nc(-c3ccc4[nH]ccc4c3)c3c(N)ncnc32)c1OCC` (stereo unspecified), the IC50 was ≤ 10 nM. In the case of `CCOc1c(C(C)n2nc(C)c3c(N)ncnc32)cc(Cl)c(C#N)c1C1CN(C2CCC2)C1` (stereo unspecified), the IC50 was ≤ 10 nM. The value for `CCOc1c(C(C)n2nc(C)c3c(N)ncnc32)cc(Cl)c(C#N)c1-c1cncc(-c2ncco2)c1` (stereo unspecified) was ≤ 10 nM; that for `COc1c(C(C)n2nc(C)c3c(N)ncnc32)cc(Cl)c(C)c1-c1cncc(C(=O)N(C)C)c1` (stereo unspecified) was ≤ 10 nM. In the case of `COc1c(C(C)n2ncc3c(N)ncnc32)cc(Cl)c(C)c1-c1ccnc(C(=O)NCCO)c1` (stereo unspecified), the IC50 fell in the range of 50 to 200 nM.
